Results: patent publication US9802927B2, “Oxadiazine compounds and methods of use thereof” (Denali Therapeutics, Inc., priority 2015, dated 2017)

tested on: Aβ42; assay: In vitro cell screening assay in H4 cells expressing human APP751: Aβ42 by sandwich ELISA; format: cell-based; settings: Homo sapiens, compounds 0.003-10 μM, incubated overnight (16-18 h), sandwich ELISA of supernatant
Procedure, shortened: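 H4 neuroglioma cells stably expressing wild-type human APP751, switched to Pro293 medium and treated with compounds (0.003-10 μM, 0.33% DMSO) for 16-18 h at 37 °C. Supernatant Aβ42 quantified by sandwich ELISA (C-terminal capture, 4G8-HRP detection, A450); EC50 by sigmoidal fit normalized to DMSO and DAPT controls.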

EC50 [nM] | Compound
38.4 | COc1nc(C2=NOC[C@H](c3cc4ccccc4o3)N2)ccc1-n1cnc(C)c1 [Example 4, (R)-5-(Benzofuran-2-yl)-3-(6-methoxy-5-(4-methyl-1H-imidazol-1-yl)pyridin-2-yl)-5,6-dihydro-4H-1,2,4-oxadiazine]
16 | COc1nc(C2=NOC[C@H](c3cc4cc(C)ccc4o3)N2)ccc1-n1cnc(C)c1 [Example 10, (R)-3-(6-Methoxy-5-(4-methyl-1H-imidazol-1-yl)pyridin-2-yl)-5-(5-methylbenzofuran-2-yl)-5,6-dihydro-4H-1,2,4-oxadiazine]
18.4 | COc1nc(C2=NOC[C@H](c3cc4ccc(C)cc4o3)N2)ccc1-n1cnc(C)c1 [Example 22, (R)-3-(6-Methoxy-5-(4-methyl-1H-imidazol-1-yl)pyridin-2-yl)-5-(6-methylbenzofuran-2-yl)-5,6-dihydro-4H-1,2,4-oxadiazine]
390 | COc1nc(C2=NOC[C@H](c3cc4ccccc4o3)N2C)ccc1-n1cnc(C)c1 [Example 32, (R)-5-(Benzofuran-2-yl)-3-(6-methoxy-5-(4-methyl-1H-imidazol-1-yl)pyridin-2-yl)-4-methyl-5,6-dihydro-4H-1,2,4-oxadiazine]

Second part, the compound before the results:

Compound | EC50 [nM]
COc1nc(C2=NOC[C@H](c3cc4ccccc4s3)N2)ccc1-n1cnc(C)c1 [Example 13, (R)-5-(Benzo[b]thiophen-2-yl)-3-(6-methoxy-5-(4-methyl-1H-imidazol-1-yl)pyridin-2-yl)-5,6-dihydro-4H-1,2,4-oxadiazine] | 7.8
COc1nc(C2=NOC[C@H](c3cc4c(C)cccc4o3)N2)ccc1-n1cnc(C)c1 [Example 19, (R)-3-(6-Methoxy-5-(4-methyl-1H-imidazol-1-yl)pyridin-2-yl)-5-(4-methylbenzofuran-2-yl)-5,6-dihydro-4H-1,2,4-oxadiazine] | 11.5

same assay, conditions: compounds 0.003-10 μM, incubated overnight (16-18 h), sandwich ELISA of supernatant

EC50 [nM] | Compound
16.7 | COc1nc(C2=NOCC(c3oc4ccccc4c3C)N2)ccc1-n1cnc(C)c1 (centres unmarked) [Example 16B, 3-(6-methoxy-5-(4-methyl-1H-imidazol-1-yl)pyridin-2-yl)-5-(3-methylbenzofuran-2-yl)-5,6-dihydro-4H-1,2,4-oxadiazine]
55.7 | COc1nc(C2=NOCC(c3cccc(C(F)(F)F)c3)N2C)ccc1-n1cnc(C)c1 (centres unmarked) [Example 30A, 3-(6-methoxy-5-(4-methyl-1H-imidazol-1-yl)pyridin-2-yl)-4-methyl-5-(3-(trifluoromethyl)phenyl)-5,6-dihydro-4H-1,2,4-oxadiazine]
> 3000 | COc1nc(C2=NOCC(c3cccc(C(F)(F)F)c3)N2C)ccc1-n1cnc(C)c1 (centres unmarked) [Example 30B, 3-(6-methoxy-5-(4-methyl-1H-imidazol-1-yl)pyridin-2-yl)-4-methyl-5-(3-(trifluoromethyl)phenyl)-5,6-dihydro-4H-1,2,4-oxadiazine]
55.7 | COc1nc(C2=NOCC(c3cccc(C(F)(F)F)c3)N2C)ccc1-n1cnc(C)c1 (centres unmarked) [Example 213, 3-(6-methoxy-5-(4-methyl-1H-imidazol-1-yl)pyridin-2-yl)-4-methyl-5-(3-(trifluoromethyl)phenyl)-5,6-dihydro-4H-1,2,4-oxadiazine]

The remaining lines, values behind:

Compound | EC50 [nM]
COc1nc(C2=NOCC(c3ccc(C(F)(F)F)c(Cl)c3)N2)ccc1-n1cnc(C)c1 (single isomer, unassigned; (-)) [Example 262A, (−)-5-(3-chloro-4-(trifluoromethyl)phenyl)-3-(6-methoxy-5-(4-methyl-1H-imidazol-1-yl)pyridin-2-yl)-5,6-dihydro-4H-1,2,4-oxadiazine] | > 3000
COc1nc(C2=NOCC(c3cn(C)c4ncc(Cl)cc34)N2)ccc1-n1cnc(C)c1 (single isomer, unassigned; (-)) [Example 264A, (−)-5-(5-chloro-1-methyl-1H-pyrrolo[2,3-b]pyridin-3-yl)-3-(6-methoxy-5-(4-methyl-1H-imidazol-1-yl)pyridin-2-yl)-5,6-dihydro-4H-1,2,4-oxadiazine] | 321
COc1nc(C2=NOCC(c3cn(C)c4ncc(C5CC5)cc34)N2)ccc1-n1cnc(C)c1 (single isomer, unassigned; (-)) [Example 266A, (−)-5-(5-cyclopropyl-1-methyl-1H-pyrrolo[2,3-b]pyridin-3-yl)-3-(6-methoxy-5-(4-methyl-1H-imidazol-1-yl)pyridin-2-yl)-5,6-dihydro-4H-1,2,4-oxadiazine] | 450
COc1nc(C2=NOCC(c3cc(F)c(Cl)c(F)c3)N2)ccc1-n1cnc(C)c1 (single isomer, unassigned; (-)) [Example 267A, (−)-5-(4-chloro-3,5-difluorophenyl)-3-(6-methoxy-5-(4-methyl-1H-imidazol-1-yl)pyridin-2-yl)-5,6-dihydro-4H-1,2,4-oxadiazine] | > 3000
COc1nc(C2=NOCC(c3ccc(C(C)(C)O)cc3)N2)ccc1-n1cnc(C)c1 (single isomer, unassigned; (-)) [Example 268A, (−)-2-(4-(3-(6-methoxy-5-(4-methyl-1H-imidazol-1-yl)pyridin-2-yl)-5,6-dihydro-4H-1,2,4-oxadiazin-5-yl)phenyl)propan-2-ol] | 1440
COc1nc(C2=NOCC(c3cnc4ccc(Cl)cn34)N2)ccc1-n1cnc(C)c1 (single isomer, unassigned; (-)) [Example 269A, (−)-5-(6-chloroimidazo[1,2-a]pyridin-3-yl)-3-(6-methoxy-5-(4-methyl-1H-imidazol-1-yl)pyridin-2-yl)-5,6-dihydro-4H-1,2,4-oxadiazine] | > 3000
COc1nc(C2=NOCC(c3ccc(Cl)c(C(F)F)c3)N2)ccc1-n1cnc(C)c1 (single isomer, unassigned; (-)) [Example 270A, (−)-5-(4-chloro-3-(difluoromethyl)phenyl)-3-(6-methoxy-5-(4-methyl-1H-imidazol-1-yl)pyridin-2-yl)-5,6-dihydro-4H-1,2,4-oxadiazine] | 418
